This is an account of results in ChEMBL document CHEMBL1649287, “Postantibiotic effect of ceftaroline against gram-positive organisms” (2009).

Test [1] concerns Streptococcus pneumoniae. The test is described as follows: Antimicrobial activity against Streptococcus pneumoniae ATCC 6306 assessed as post antibiotic effect at 10 times MIC after 2 hr by plate counting method. In kind it is functional.
Test [2] deals with Staphylococcus aureus. The test is described as follows: Antimicrobial activity against Staphylococcus aureus ATCC 29213 assessed as post antibiotic effect at 10 times MIC after 2 hr by plate counting method. Type of test: functional.

For the compound `CO/N=C(\C(=O)N[C@@H]1C(=O)N2C(C(=O)O)=C(CSc3nc(=O)c(O)nn3C)CS[C@H]12)c1csc(N)n1` [CEFTRIAXONE], the PAE in test [1] turned out to be 0.7 h; in test [2], 2.3 h.
